In brackets after ≈: the same amount, converted by molar mass. Read-outs that look alike come from different tables or passages of the source.
Legend:
S. aureus Smith = experiment: Protective Dose50 in mice, S. aureus Smith; assay type: in vivo; conditions: for ED50: Staphylococcus aureus, read-out: PD50, S. aureus Smith
Description: (§1) Table 2, below, gives the Protective Dose50 (PD50) in mice for a number of the compounds of Formula I against selected microorganisms. Table 3 gives blood levels of various compounds of Formula I upon intramuscular administration of the test compounds to mice at a dosage of 20 mg/kg.

[1] = blood levels upon intramuscular administration to mice; assay type: in vivo; conditions: mouse, im, 20 mg/kg
Description: as §1

P. aeruginosa A9843A = experiment: Protective Dose50 in mice, P. aeruginosa A9843A; assay type: in vivo; conditions: Pseudomonas aeruginosa, read-out: PD50, P. aeruginosa A9843A
Description: as §1

[2] = test system: Penicillinsensitive S. aureus (5 strains); experiment: MIC, two-fold serial agar dilution, group (G+)-Ia; assay type: cell-based; conditions: Staphylococcus aureus, read-out: Geometric Mean of MIC, (G+)-Ia
Description: (§2) In the primary evaluation of the compounds of this invention, the Minimum Inhibitory Concentrations (MIC's) of the compounds were determined by the two-fold serial agar dilution method in Mueller-Hinton agar against 32 strains of test organisms in six groups.
(G+)Ia: Penicillinsensitive S. aureus (5 strains)

[3] = test system: M. morganii (1 strain), Ent. cloacae (2 strains) and Ser. marcescens (2 strains); experiment: MIC, two-fold serial agar dilution, group (G-)-II; assay type: cell-based; conditions: Mueller-Hinton agar; 5 strains; read-out: Geometric Mean of MIC, (G-)-II
Description: as §2
(G-)II: M. morganii (1 strain), Ent. cloacae (2 strains) and Ser.

[4] = test system: Cephalothinsensitive E. coli (2 strains), Kl. pneumoniae (1 strain) and Pr. mirabilis (2 strains); experiment: MIC, two-fold serial agar dilution, group (G-)-Ia; assay type: cell-based; conditions: Mueller-Hinton agar; 5 strains; read-out: Geometric Mean of MIC, (G-)-Ia
Description: as §2
(G+)Ia: Cephalothinsensitive E. coli (2 strains), Kl. pneumoniae (1
strain) and Pr. mirabilis (2 strains)

[5] = test system: Cephalothinresistant E. coli (3 strains) and Kl. pneumoniae (2 strains); experiment: MIC, two-fold serial agar dilution, group (G-)-Ib; assay type: cell-based; conditions: Escherichia coli, read-out: Geometric Mean of MIC, (G-)-Ib, Mueller-Hinton agar; 5 strains
Description: as §2
(G-)Ib: Cephalothinresistant E. coli (3 strains) and Kl. pneumoniae (2

[6] = test system: Penicillinresistant S. aureus (5 strains); experiment: MIC, two-fold serial agar dilution, group (G+)-Ib; assay type: cell-based; conditions: Staphylococcus aureus, read-out: Geometric Mean of MIC, (G+)-Ib
Description: as §2
(G+)Ib: Penicillinresistant S. aureus (5 strains)

E. coli Juhl = experiment: Protective Dose50 in mice, E. coli Juhl; assay type: in vivo; conditions: Escherichia coli, read-out: PD50, E. coli Juhl
Description: as §1

[7] = test system: Ps. aeruginosa (7 strains); experiment: MIC, two-fold serial agar dilution, group (G-)-III; assay type: cell-based; conditions: Pseudomonas aeruginosa, Mueller-Hinton agar, read-out: Geometric Mean of MIC, (G-)-III
Description: as §2
(G-)III: Ps. aeruginosa (7 strains)

[8] = solubility of crystalline zwitterion in saline; assay type: physicochemical; conditions: crystalline zwitterion form

SMILES | PD50, S. aureus Smith (S. aureus Smith) [mg/kg] | ED50 (S. aureus Smith) [mg/kg] | AUC [1] [ng·h/mL] | Cmax [1] [ng/mL] | half-life [1] [min] | ED50 (P. aeruginosa A9843A) [mg/kg] | MIC [2] [µg/mL] | MIC [3] [µg/mL] | MIC [4] [µg/mL] | MIC [5] [µg/mL] | MIC [6] [µg/mL] | ED50 (E. coli Juhl) [mg/kg] | MIC [7] [µg/mL] | MIC ([6]; Mueller-Hinton agar, 5 strains) [µg/mL] | solubility in water (in words) [8] | solubility ([8]; in saline at 23° C.) [µg/mL] | MIC ([2]; Mueller-Hinton agar, 5 strains) [µg/mL]
CON=C(C(=O)NC1C(=O)N2C(C(=O)[O-])=C(C=CC[n+]3ccccc3)CSC12)c1nsc(N)n1 (stereo not drawn) [Compound I-1B, 7-[2-(5-Amino-1,2,4-thiadiazol-3-yl)-2-methoxyiminoacetamido]-3-[3-pyridinio-1-propen-1-yl]-3-cephem-4-carboxylate] | 0.65 | 0.44 | 11000 | 17000 | 21 | 7.7 |  |  |  |  |  |  |  |  |  |  | 
CON=C(C(=O)NC1C(=O)N2C(C(=O)[O-])=C(C=CC[n+]3ccc4sc(N)nc4c3)CS[C@H]12)c1nsc(N)n1 (stereo partly drawn) [Compound I-1C, 7-[2-(5-Amino-1,2,4-thiadiazol-3-yl)-2-methoxyiminoacetamido]-3-[3-(2-amino-5-thiazolo[4,5-c]pyridinio)-1-propen-1-yl]-3-cephem-4-carboxylate] |  | 0.22 | 18000 | 21000 | 32 |  | 0.1 (≈ 0.174 µM) | 0.087 (≈ 0.152 µM) | 0.0071 (≈ 0.0124 µM) | 0.033 (≈ 0.0575 µM) | 0.2 (≈ 0.349 µM) | 0.013 | 3.8 (≈ 6.62 µM) |  |  |  | 
CON=C(C(=O)NC1C(=O)N2C(C(=O)[O-])=C(/C=C/C[n+]3cccc(C(N)=O)c3)CSC12)c1nsc(N)n1 (stereo not drawn) [Compound I-1G, 7-[2-(5-Amino-1,2,4-thiadiazol-3-yl)-2-methoxyiminoacetamido]-3-[3-(3-carbamoylpyridinio)-1-propen-1-yl]-3-cephem-4-carboxylate] |  | 0.96 |  |  |  | 5.92 | 0.2 (≈ 0.367 µM) | 0.1 (≈ 0.184 µM) | 0.0094 (≈ 0.0173 µM) | 0.033 (≈ 0.0606 µM) |  | 0.021 | 1.4 (≈ 2.57 µM) | 0.35 (≈ 0.643 µM) |  |  | 
CON=C(C(=O)NC1C(=O)N2C(C(=O)[O-])=C(/C=C/C[n+]3ccc(C(N)=O)cc3)CSC12)c1nsc(N)n1 (stereo not drawn) [Compound I-1H, 7-[2-(5-Amino-1,2,4-thiadiazol-3-yl)-2-methoxyiminoacetamido]-3-[3-(4-carbamoylpyridinio)-1-propen-1-yl]-3-cephem-4-carboxylate] |  | 0.39 | 14000 | 23000 | 16 | 3.9 | 0.2 (≈ 0.367 µM) | 0.1 (≈ 0.184 µM) | 0.013 (≈ 0.0239 µM) | 0.043 (≈ 0.079 µM) |  | 0.015 | 0.97 (≈ 1.78 µM) | 0.4 (≈ 0.735 µM) | slightly soluble in water | 6000 (≈ 11000 µM) | 
CON=C(C(=O)NC1C(=O)N2C(C(=O)[O-])=C(/C=C/C[n+]3ccsc3C)CSC12)c1nsc(N)n1 (stereo not drawn) [Compound I-1J, 7-[2-(5-Amino-1,2,4-thiadiazol-3-yl)-2-methoxyiminoacetamido]-3-[3-(2-methylthiazolio)-1-propen-1-yl]-3-cephem-4-carboxylate] |  | 0.35 | 9700 | 19000 | 16 |  |  | 0.15 (≈ 0.288 µM) | 0.025 (≈ 0.0479 µM) | 0.076 (≈ 0.146 µM) |  | 0.029 | 1.6 (≈ 3.07 µM) | 0.35 (≈ 0.671 µM) |  |  | 0.17 (≈ 0.326 µM)
CON=C(C(=O)NC1C(=O)N2C(C(=O)[O-])=C(/C=C/C[n+]3cccc(CO)c3)CSC12)c1nsc(N)n1 (stereo not drawn) [Compound I-1K, 7-[2-(5-Amino-1,2,4-thiadiazol-3-yl)-2-methoxyiminoacetamido]-3-[3-(3-hydroxymethylpyridinio)-1-propenyl]-3-cephem-4-carboxylate] |  | 0.53 | 14000 | 24000 | 14 |  |  | 0.2 (≈ 0.376 µM) | 0.029 (≈ 0.0546 µM) | 0.044 (≈ 0.0828 µM) |  |  | 3.5 (≈ 6.58 µM) | 0.8 (≈ 1.5 µM) |  |  | 0.35 (≈ 0.658 µM)
CNC(=O)c1cc[n+](C/C=C/C2=C(C(=O)[O-])N3C(=O)C(NC(=O)/C(=N\OC)c4nsc(N)n4)C3SC2)cc1 (stereo not drawn) [Compound I-1M, 7-[2-(5-Amino-1,2,4-thiadiazol-3-yl)-2-(Z)-methoxyiminoacetamido]-3-[3-(4-N-methylcarbamoylpyridinio)-1-propenyl]-3-cephem-4-carboxylate] |  | 0.96 | 14000 | 20000 | 23 |  |  | 0.17 (≈ 0.304 µM) | 0.029 (≈ 0.0519 µM) | 0.1 (≈ 0.179 µM) |  |  | 2.3 (≈ 4.12 µM) | 0.7 (≈ 1.25 µM) |  |  | 0.35 (≈ 0.627 µM)
CON=C(C(=O)NC1C(=O)N2C(C(=O)[O-])=C(C=CC[n+]3ccc(C(=O)O)cc3)CSC12)c1nsc(N)n1 (stereo not drawn) [Compound I-1N, 7-[2-(5-Amino-1,2,4-thiadiazol-3-yl)-2-methoxyiminoacetamido]-3-[3-(4-carboxypyridinio)-1-propenyl]-3-cephem-4-carboxylate] |  | 2 | 18000 | 24000 | 19 |  |  | 0.3 (≈ 0.55 µM) | 0.013 (≈ 0.0238 µM) | 0.066 (≈ 0.121 µM) |  |  | 5.7 (≈ 10.4 µM) | 1.6 (≈ 2.93 µM) |  |  | 1.2 (≈ 2.2 µM)
CO/N=C(\C(=O)NC1C(=O)N2C(C(=O)[O-])=C(/C=C/C[n+]3cccc4c3CCC4)CSC12)c1nsc(N)n1 (stereo not drawn) [Compound I-1O, 7-[2-(5-Amino-1,2,4-thiadiazol-3-yl)-2-(Z)-methoxyiminoacetamido]-3-[3-(2,3-cyclopentenopyridinio)-1-propenyl]-3-cephem-4-carboxylate] |  | 0.26 | 17000 | 28000 | 32 |  |  | 0.11 (≈ 0.203 µM) | 0.029 (≈ 0.0535 µM) | 0.033 (≈ 0.0609 µM) |  | 0.17 | 14 (≈ 25.8 µM) | 0.35 (≈ 0.646 µM) |  |  | 0.17 (≈ 0.314 µM)
CCO/N=C(\C(=O)NC1C(=O)N2C(C(=O)[O-])=C(C=CC[n+]3ccc(C(=O)O)cc3)CSC12)c1nsc(N)n1 (stereo not drawn) [Compound I-2N, 7-[2-(5-Amino-1,2,4-thiadiazol-3-yl)-2-(Z)-ethoxyiminoacetamido]-3-[3-(4-carboxypyridinio)-1-propenyl]-3-cephem-4-carboxylate] |  | 5 | 12000 | 22000 | 20 |  |  |  |  |  |  |  |  |  |  |  | 
C#CCON=C(C(=O)NC1C(=O)N2C(C(=O)[O-])=C(/C=C/C[n+]3ccc(C(N)=O)cc3)CSC12)c1nsc(N)n1 (stereo not drawn) [Compound I-4H, 7-[2-(5-Amino-1,2,4-thiadiazol-3-yl)-2-propargyloxyiminoacetamido]-3-[3-(4-carbamoylpyridinio)-1-propenyl]-3-cephem-4-carboxylate] |  |  | 16000 | 27000 | 22 |  |  | 0.6 (≈ 1.06 µM) | 0.066 (≈ 0.116 µM) | 0.11 (≈ 0.193 µM) |  |  | 2.6 (≈ 4.57 µM) | 0.46 (≈ 0.809 µM) |  |  | 0.26 (≈ 0.457 µM)
NC(=O)c1cc[n+](C/C=C/C2=C(C(=O)[O-])N3C(=O)C(NC(=O)C(=NOC4CCCC4)c4nsc(N)n4)C3SC2)cc1 (stereo not drawn) [Compound I-5H, 7-[2-(5-Amino-1,2,4-thiadiazol-3-yl)-2-cyclopentyloxyiminoacetamido]-3-[3-(4-carbamoylpyridinio)-1-propenyl]-3-cephem-4-carboxylate] |  |  | 18000 | 22000 | 32 |  |  | 2.1 (≈ 3.51 µM) | 0.2 (≈ 0.334 µM) | 0.46 (≈ 0.768 µM) |  |  | 4.2 (≈ 7.02 µM) | 0.4 (≈ 0.668 µM) |  |  | 0.13 (≈ 0.217 µM)
